Assay results as given in ChEMBL document CHEMBL6182894, “Design, synthesis, and biological evaluation of quinolinyl-ureido-phenyl-hydrazide derivatives and quinolinyl-hydrazide derivatives as anticancer agents targeting Nur77-mediated ferroptosis” (Eur J Med Chem, 2025).
Active and inactive are the calls of the source. The rule behind the calls is not given here.

Legend:
MCF7 [1] = test: Upregulation of Nur77 protein expression in human MCF7 cells at 3 uM measured at 2 to 10 hrs by Western blot assay; format: functional, cell-based; conditions: time 2-10 hrs
HepG2 [2] = test: Induction of ferroptosis in Nur77 knockout human HepG2 cells assessed as increase in GPX4 expression at 3 uM incubated for 24 hrs by Western blot analysis; format: functional, cell-based
MCF7 [3] = test: Induction of apoptosis in human MCF7 cells assessed as necrotic cells at 3 uM incubated for 24 hrs by Annexin V-FITC/PI staining based flow cytometry analysis (Rvb =0.2%); format: functional
MCF7 [4] = test: Induction of ferroptosis in human MCF7 cells assessed as effect on SLC7A11 expression at 3 uM incubated for 24 hrs in presence of fer-1 by Western blot analysis; format: functional, cell-based
MCF7 [5] = test: Anticancer activity in human MCF7 cells assessed as reduction in cell viability at 3 uM in presence of fer-1 by MTT assay; format: functional, cell-based
[6] = Toxicity in nude BALB/c mouse xenografted with human MCF7 cells assessed as change in body weight at 10 to 20 mg/kg/day, IG administered on alternative days for 21 days; format: organism-based; conditions: in vivo, po, 504 h, dose 10-20 mg/kg/day, time 21 day
MCF7 [7] = test: Induction of apoptosis in human MCF7 cells assessed as early apoptotic cells at 3 uM incubated for 24 hrs by Annexin V-FITC/PI staining based flow cytometry analysis (Rvb =0.82%); format: functional
MCF7 [8] = test: Induction of apoptosis in human MCF7 cells assessed as late apoptotic cells at 3 uM incubated for 24 hrs by Annexin V-FITC/PI staining based flow cytometry analysis (Rvb =0.86%); format: functional
[9] = Cytotoxicity in HaCaT cells assessed as inhibition of cell growth by MTT assay; format: toxicity, cell-based; conditions: human
MCF7 [10] = test: Induction of ferroptosis in human MCF7 cells assessed as accumulation of lipid peroxidation at 3 uM incubated for 24 hrs by BODIPYTM 581/591C11 probe based inverted fluorescence microscopic analysis; format: functional, cell-based
[11] = Toxicity in nude BALB/c mouse xenografted with human MCF7 cells assessed as appearance of intact hepatic lobules with central veins and cords of radiating hepatocytes at 10 to 20 mg/kg/day, IG administered on alternative days for 21 days by H and E staining analysis; format: organism-based; conditions: in vivo, po, 504 h, dose 10-20 mg/kg/day, time 21 day
MCF7 [12] = test: Induction of ferroptosis in Nur77 knockout human MCF7 cells assessed as […] incubated for 24 hrs by Western blot analysis; format: functional, cell-based
HepG2 [13] = test: Induction of ferroptosis in human HepG2 cells assessed as decrease in GPX4 expression at 3 uM incubated for 24 hrs by Western blot analysis; format: functional, cell-based
MCF7 [14] = test: Antitumor activity against human MCF7 cells xenografted in nude BALB/c mouse assessed as decrease in GPX4 level in tumor at 10 to 20 mg/kg/day, IG administered on alternative days for 21 days by immunohistochemical analysis; format: functional, organism-based; conditions: dose 10-20 mg/kg/day, time 21.0 day
BT-549 = test: cells; conditions: Homo sapiens, BT-549, 24 h
Description: Antiproliferative activity against human BT-549 cells assessed as inhibition of cell growth incubated for 24 hrs by MTT assay

MCF7 [15] = test: Induction of ferroptosis in human MCF7 cells assessed as increase in malondialdehyde level at 1.5 to 4.5 uM incubated for 24 hrs by MDA assay; format: functional, cell-based; conditions: dose 1.5-4.5 µM
MCF7 [16] = test: cells; conditions: Homo sapiens, MCF7, 24 h
Description: Antiproliferative activity against human MCF7 cells assessed as inhibition of cell growth incubated for 24 hrs by MTT assay

MDA-MB-231 = test: cells; conditions: Homo sapiens, MDA-MB-231, 24 h
Description: Antiproliferative activity against human MDA-MB-231 cells assessed as inhibition of cell growth incubated for 24 hrs by MTT assay

MCF7 [17] = test: Induction of apoptosis in human MCF7 cells assessed as early apoptotic cells at 6 uM incubated for 24 hrs by Annexin V-FITC/PI staining based flow cytometry analysis (Rvb =0.82%); format: functional
[18] = Half life in nude BALB/c mouse at 20 mg/kg, IG measured after 24 hrs; format: ADME, organism-based; conditions: in vivo, po
MCF7 [19] = test: Induction of ferroptosis in human MCF7 cells assessed as decrease in GPX4 expression at 3 uM incubated for 24 hrs in presence of fer-1 by Western blot analysis; format: functional, cell-based
[20] = Cmax in nude BALB/c mouse at 20 mg/kg, IG measured after 24 hrs; format: ADME, organism-based; conditions: in vivo, po
MCF7 [21] = test: Antiproliferative activity against human MCF7 cells assessed as inhibition of cell growth at 50 uM by MTT assay relative to control; format: functional
MCF7 [22] = test: Anticancer activity in human MCF7 cells assessed as cell viability at 3 uM in presence of DFO by MTT assay; format: functional, cell-based
MCF7 [23] = test: Induction of apoptosis in human MCF7 cells assessed as viable cells at 3 uM incubated for 24 hrs by Annexin V-FITC/PI staining based flow cytometry analysis (reference value: 98.1%); format: functional; conditions: read-out: Activity
MCF7 [24] = test: Induction of apoptosis in human MCF7 cells assessed as necrotic cells at 6 uM incubated for 24 hrs by Annexin V-FITC/PI staining based flow cytometry analysis (Rvb =0.2%); format: functional
MCF7 [25] = test: Upregulation of Nur77 protein expression in human MCF7 cells at 3 to 6 uM measured at 2 hrs by Western blot assay; format: functional, cell-based; conditions: dose 3-6 µM
[26] = AUC (0 to infinity) in nude BALB/c mouse at 20 mg/kg, IG measured after 24 hrs; format: ADME, organism-based; conditions: in vivo, po
MCF7 [27] = test: Induction of ROS production in human MCF7 cells at 3 uM incubated for 24 hrs by DCFH-DA staining based flow cytometric analysis; format: functional, cell-based
MCF7 [28] = test: Antitumor activity against human MCF7 cells xenografted in nude BALB/c mouse assessed as tumor growth inhibition at 10 mg/kg/day, IG administered on alternative days for 21 days relative to control; format: functional; conditions: MCF7, po, 504 h, time 21 day, read-out: TGI
MCF7 [29] = test: Antitumor activity against human MCF7 cells xenografted in nude BALB/c mouse assessed as increase in Nur77 level in tumor at 10 to 20 mg/kg/day, IG administered on alternative days for 21 days by immunohistochemical analysis; format: functional, organism-based; conditions: dose 10-20 mg/kg/day, time 21.0 day
HCT-116 = test: Antiproliferative activity against human HCT-116 cells assessed as inhibition of cell growth by MTT assay
HepG2 [30] = test: Antiproliferative activity against human HepG2 cells assessed as inhibition of cell growth by MTT assay
MCF7 [31] = test: Induction of ROS production in Nur77 knockout human MCF7 cells at 3 uM incubated for 24 hrs by DCFH-DA staining based flow cytometric analysis; format: functional, cell-based
T47D [32] = test: Induction of ferroptosis in human T47D cells assessed as increase in malondialdehyde level at 1.5 to 4.5 uM incubated for 24 hrs by MDA assay; format: functional, cell-based; conditions: dose 1.5-4.5 µM
MCF7 [33] = test: Inhibition of colony formation in human MCF7 cells at 4.5 uM incubated for 3 days by crystal violet staining based analysis relative to control; format: functional; conditions: MCF7, 72 h, time 3 day
MCF7 [34] = test: Cytotoxicity in Nur77 knockout human MCF7 cells at 1 to 3 uM incubated for 24 hrs by MTT assay; format: functional, cell-based; conditions: dose 1-3 µM
MCF7 [35] = test: Induction of ferroptosis in Nur77 knockout human MCF7 cells assessed as accumulation of lipid peroxidation at 3 uM incubated for 24 hrs by BODIPYTM 581/591C11 probe based inverted fluorescence microscopic analysis; format: functional, cell-based
MCF7 [36] = test: Induction of apoptosis in human MCF7 cells assessed as late apoptotic cells at 6 uM incubated for 24 hrs by Annexin V-FITC/PI staining based flow cytometry analysis (Rvb =0.86%); format: functional
MCF7 [37] = test: Antiproliferative activity against Nur77 knockout human MCF7 cells at 3 uM incubated for 24 hrs by EdU staining based analysis; format: functional, cell-based
[38] = Cytotoxicity in human MCF-10A cells assessed as inhibition of cell growth by MTT assay; format: toxicity, cell-based
MCF7 [39] = test: Induction of ferroptosis in Nur77 knockout human MCF7 cells assessed as […] at 3 uM incubated for 24 hrs by BODIPYTM 581/591C11 probe based flow cytometry analysis; format: functional, cell-based
MCF7 [40] = test: Antitumor activity against human MCF7 cells xenografted in nude BALB/c mouse assessed as tumor growth inhibition at 20 mg/kg/day, IG administered on alternative days for 21 days relative to control; format: functional; conditions: MCF7, po, 504 h, time 21 day, read-out: TGI
T47D [41] = test: cells; conditions: Homo sapiens, 24 h
Description: Antiproliferative activity against human T47D cells assessed as inhibition of cell growth incubated for 24 hrs by MTT assay

MCF7 [42] = test: Induction of apoptosis in human MCF7 cells assessed as viable cells at 6 uM incubated for 24 hrs by Annexin V-FITC/PI staining based flow cytometry analysis (reference value: 98.1%); format: functional; conditions: read-out: Activity

Compound: O=C(Nc1ccc(C(=O)N/N=C/c2cccc(Cl)c2)cc1)Nc1ccc2ncccc2c1
- Activity (MCF7 [1]): inactive
- Activity (HepG2 [2]): Active
- Activity (MCF7 [3]): 0.27%
- Activity (MCF7 [4]): Active
- Activity (MCF7 [5]): Active
- Activity [6]: Non-toxic
- Activity (MCF7 [7]): 0.8%
- Activity (MCF7 [8]): 1.65%
- IC50 [9]: > 50 µM
- Activity (MCF7 [10]): Active
- Activity [11]: Non-toxic
- Activity (MCF7 [12]): Active
- Activity (HepG2 [13]): Active
- Activity (MCF7 [14]): Active
- IC50 (BT-549): 3.93 µM
- Activity (MCF7 [15]): Active
- IC50 (MCF7 [16]): 2.3 µM
- IC50 (MDA-MB-231): 3.14 µM
- Activity (MCF7 [17]): 1.29%
- half-life [18]: 1.49 h
- Activity (MCF7 [19]): Active
- Cmax [20]: 37.5 ng/mL
- inhibition at 50 µM (MCF7 [21]): 81%
- Activity (MCF7 [22]): Active
- viability at 3 µM (MCF7 [23]): 97.3%
- Activity (MCF7 [24]): 0.34%
- Activity (MCF7 [25]): Active
- AUC(0-inf) [26]: 58.8 ng·h/mL
- Activity (MCF7 [27]): Active
- inhibition in vivo at 10 mg/kg/day (MCF7 [28]): 43.5%
- Activity (MCF7 [29]): Active
- IC50 (HCT-116): 3.26 µM
- IC50 (HepG2 [30]): 2.15 µM
- Activity (MCF7 [31]): inactive
- Activity (T47D [32]): Active
- inhibition at 4.5 µM (MCF7 [33]): 100%
- Activity (MCF7 [34]): Active; Compound Showed Weak Activity Compared To Wild-Type Cells
- Activity (MCF7 [35]): inactive
- Activity (MCF7 [36]): 4.1%
- Activity (MCF7 [37]): Active; Compound Showed Weak Activity Compared To Wild-Type Cells
- IC50 [38]: > 50 µM
- Activity (MCF7 [39]): Active
- inhibition in vivo at 20 mg/kg/day (MCF7 [40]): 49%
- IC50 (T47D [41]): 5.57 µM
- viability at 6 µM (MCF7 [42]): 94.3%
